Results reported in patent US9050345B2, “Pyrrolotriazines as potassium ion channel inhibitors” (BRISTOL-MYERS SQUIBB COMPANY, priority 2013, dated 2015).

target: T1, human KV 1.5 (IKur) (Homo sapiens, UniProt P22460); test: block of IKur current in patch clamped L-929 cells expressing human Kv1.5; format: cell-based; settings: 0.3 μM; patch clamped mammalian L-929 cells stably expressing human Kv1.5
T1 construct: expressed in transfected cells
Excerpt: Assays to determine the degree of activity of a compound as an IKur inhibitor are well known in the art and are described in references such as J. Gen. Physiol., 101(4):513-543 (April 1993), and Br. J. Pharmacol., 115(2):267-274 (May 1995).
Synders, D. J. et al., “A rapidly activating and slowly inactivating potassium channel cloned from human heart: functional analysis after stable mammalian cell culture expression”, J. Gen. Physiol., 101:513-543 (1993). • 2. Zhou, Z. et al., “Block of HERG potassium channels by the antihistamine astemizole and its metabolites desmethylastemizole and norastemizole”, J. Cardiovasc. Electrophysiol., 10(6):836-843 (1999).

T1 sequence (P22460 whole entry): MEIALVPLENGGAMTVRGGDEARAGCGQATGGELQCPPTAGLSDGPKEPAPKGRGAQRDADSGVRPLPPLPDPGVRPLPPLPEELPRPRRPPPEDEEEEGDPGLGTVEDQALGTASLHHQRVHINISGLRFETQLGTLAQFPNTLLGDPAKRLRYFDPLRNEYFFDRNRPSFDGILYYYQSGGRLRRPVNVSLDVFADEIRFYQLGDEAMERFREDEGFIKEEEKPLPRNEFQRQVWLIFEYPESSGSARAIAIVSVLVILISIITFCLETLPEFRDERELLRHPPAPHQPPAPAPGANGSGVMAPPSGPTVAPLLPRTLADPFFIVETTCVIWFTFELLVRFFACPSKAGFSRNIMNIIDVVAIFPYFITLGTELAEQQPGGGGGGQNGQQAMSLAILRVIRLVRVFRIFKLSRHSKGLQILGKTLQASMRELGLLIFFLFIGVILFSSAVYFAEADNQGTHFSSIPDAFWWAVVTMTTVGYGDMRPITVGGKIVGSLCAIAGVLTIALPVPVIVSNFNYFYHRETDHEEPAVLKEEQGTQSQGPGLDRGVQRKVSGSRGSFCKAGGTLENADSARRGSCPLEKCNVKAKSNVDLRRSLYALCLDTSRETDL

| KV1_5% Inh L929 @0.3 μM | Compound |
| --- | --- |
| 38.74% | 1-(1-(4- (benzylamino)-5- phenylpyrrolo [1,2-f][1,2,4] triazine-2-carbonyl) piperidin-4-yl)-1H- benzo[d]imidazol- 2(3H)-one [Example 121] |
| 98.08% | 4-(4-(benzylamino)-5- phenylpyrrolo [1,2-f][1,2,4] triazin-2-yl) picolinic acid [Example 95] |
| 95.79% | CC(Nc1nc(-c2cncc(S(N)(=O)=O)c2)nn2ccc(-c3ccccc3)c12)c1ccccc1 (centres unmarked) [Example 8, 5-(5-Phenyl-4-(1-phenylethylamino)pyrrolo[1,2-f][1,2,4]triazin-2-yl)pyridine-3-sulfonamide] |
| 90.60% | OCC(O)c1cncc(-c2nc(NCc3ccccc3)c3c(-c4ccccc4)ccn3n2)c1 (centres unmarked) [Example 14, 1-(5-(4-(Benzylamino)-5-phenylpyrrolo[1,2-f][1,2,4]triazin-2-yl)pyridin-3-yl)ethane-1,2-diol] |
| 47.37% | OCC(O)c1nc(NCc2ccccc2)c2c(-c3ccccc3)ccn2n1 (centres unmarked) [Example 18, 1-(4-(Benzylamino)-5-phenylpyrrolo[1,2-f][1,2,4]triazin-2-yl)ethane-1,2-diol] |
| 96.63% | CC(O)c1cncc(-c2nc(NCc3ccccc3)c3c(-c4ccccc4)ccn3n2)c1 (centres unmarked) [Example 21, 1-(5-(4-(Benzylamino)-5-phenylpyrrolo[1,2-f][1,2,4]triazin-2-yl)pyridin-3-yl)ethanol] |

same assay, conditions: L929, 0.3 μM; patch clamped mammalian L-929 cells stably expressing human Kv1.5; read-out: KV1_5% Inh L929 @0.3 μM

| inhibition at 0.3 µM | Compound |
| --- | --- |
| 98.6% | N#C[C@@H]1C[C@H]1c1nc(NCc2ccccn2)c2c(-c3ccccc3)ccn2n1 (racemic) [Example 43, (±)-2-(5-Phenyl-4-(pyridin-2-ylmethylamino)pyrrolo[1,2-f][1,2,4]triazin-2-yl)cyclopropanecarbonitrile] |
| 98.8% | NC(=O)[C@@H]1C[C@H]1c1nc(NCc2ccccn2)c2c(-c3ccccc3)ccn2n1 (racemic) [Example 44, (±)-2-(5-Phenyl-4-(pyridin-2-ylmethylamino)pyrrolo[1,2-f][1,2,4]triazin-2-yl)cyclopropanecarboxamide] |
| 96.5% | NS(=O)(=O)c1cncc(-c2nc(NCc3ccccc3)c3c(-c4ccccc4)ccn3n2)c1 [Example 1, 5-(4-(Benzylamino)-5-phenylpyrrolo[1,2-f][1,2,4]triazin-2-yl)pyridine-3-sulfonamide] |
| 98.5% | NS(=O)(=O)c1cncc(-c2nc(NCc3ccccn3)c3c(-c4ccccc4)ccn3n2)c1 [Example 2, 5-(5-Phenyl-4-(pyridin-2-ylmethylamino)pyrrolo[1,2-f][1,2,4]triazin-2-yl)pyridine-3-sulfonamide] |
| 94.1% | CS(=O)(=O)Nc1cncc(-c2nc(NCc3ccccn3)c3c(-c4ccccc4)ccn3n2)c1 [Example 3, N-(5-(5-Phenyl-4-(pyridin-2-ylmethylamino)pyrrolo[1,2-f][1,2,4]triazin-2-yl)pyridin-3-yl)methanesulfonamide] |
| 97.3% | NC(=O)CC(=O)Nc1cncc(-c2nc(NCc3ccccc3)c3c(-c4ccccc4)ccn3n2)c1 [Example 4, N1-(5-(4-(Benzylamino)-5-phenylpyrrolo[1,2-f][1,2,4]triazin-2-yl)pyridin-3-yl)malonamide] |
| 98.5% | NS(=O)(=O)c1nc(-c2nc(NCc3ccccn3)c3c(-c4ccccc4)ccn3n2)cs1 [Example 5, 4-(5-Phenyl-4-(pyridin-2-ylmethylamino)pyrrolo[1,2-f][1,2,4]triazin-2-yl)thiazole-2-sulfonamide] |
| 91.7% | NS(=O)(=O)c1cncc(-c2nc(NCc3ccccn3)c3c(-c4ccc(F)cc4)ccn3n2)c1 [Example 6, 5-(5-(4-Fluorophenyl)-4-(pyridin-2-ylmethylamino)pyrrolo[1,2-f][1,2,4]triazin-2-yl)pyridine-3-sulfonamide] |
| 97.8% | COc1ccc(-c2nc(NCc3ccccn3)c3c(-c4ccc(OC)nc4)ccn3n2)cn1 [Example 7, 2,5-Bis(6-methoxypyridin-3-yl)-N-(pyridin-2-ylmethyl)pyrrolo[1,2-f][1,2,4]triazin-4-amine] |
| 97.5% | CC(Nc1nc(-c2cncc(S(N)(=O)=O)c2)nn2ccc(-c3ccccc3)c12)c1ccccc1 (centres unmarked) [Example 8, 5-(5-Phenyl-4-(1-phenylethylamino)pyrrolo[1,2-f][1,2,4]triazin-2-yl)pyridine-3-sulfonamide] |
| 98.4% | NC(=O)c1cncc(-c2nc(NCc3ccccn3)c3c(-c4ccccc4)ccn3n2)c1 [Example 9, 5-(5-Phenyl-4-(pyridin-2-ylmethylamino)pyrrolo[1,2-f][1,2,4]triazin-2-yl)nicotinamide] |
| 86% | O=C(O)c1cncc(-c2nc(NCc3ccccn3)c3c(-c4ccccc4)ccn3n2)c1 [Example 10, 5-(5-Phenyl-4-(pyridin-2-ylmethylamino)pyrrolo[1,2-f][1,2,4]triazin-2-yl)nicotinic acid] |
| 93.4% | c1ccc(CNc2nc(-c3cncc(-c4nnn[nH]4)c3)nn3ccc(-c4ccccc4)c23)cc1 [Example 11, 2-(5-(1H-Tetrazol-5-yl)pyridin-3-yl)-N-benzyl-5-phenylpyrrolo[1,2-f][1,2,4]triazin-4-amine] |
| 88.2% | O=C(O)c1cncc(-c2nc(NCc3ccccc3)c3c(-c4ccccc4)ccn3n2)c1 [Example 12, 5-(4-(Benzylamino)-5-phenylpyrrolo[1,2-f][1,2,4]triazin-2-yl)nicotinic acid] |
| 95.9% | NC(=O)c1cncc(-c2nc(NCc3ccccc3)c3c(-c4ccccc4)ccn3n2)c1 [Example 13, 5-(4-(Benzylamino)-5-phenylpyrrolo[1,2-f][1,2,4]triazin-2-yl)nicotinamide] |
| 95% | OCC(O)c1cncc(-c2nc(NCc3ccccc3)c3c(-c4ccccc4)ccn3n2)c1 (centres unmarked) [Example 14, 1-(5-(4-(Benzylamino)-5-phenylpyrrolo[1,2-f][1,2,4]triazin-2-yl)pyridin-3-yl)ethane-1,2-diol] |

| inhibition at 0.3 µM | Compound |
| --- | --- |
| 95.5% | NS(=O)(=O)c1cncc(-c2nc(NCc3ccccc3)c3c(-c4ccccc4)ccn3n2)n1 [Example 15, 6-(4-(Benzylamino)-5-phenylpyrrolo[1,2-f][1,2,4]triazin-2-yl)pyrazine-2-sulfonamide] |
| 91.1% | NS(=O)(=O)c1cc(-c2nc(NCc3ccccc3)c3c(-c4ccccc4)ccn3n2)cnc1O [Example 16, 5-(4-(Benzylamino)-5-phenylpyrrolo[1,2-f][1,2,4]triazin-2-yl)-2-hydroxypyridine-3-sulfonamide] |
| 92.4% | CC(C)(O)c1cncc(-c2nc(NCc3ccccc3)c3c(-c4ccccc4)ccn3n2)c1 [Example 17, 2-(5-(4-(Benzylamino)-5-phenylpyrrolo[1,2-f][1,2,4]triazin-2-yl)pyridin-3-yl)propan-2-ol] |
| 40.9% | OCC(O)c1nc(NCc2ccccc2)c2c(-c3ccccc3)ccn2n1 (centres unmarked) [Example 18, 1-(4-(Benzylamino)-5-phenylpyrrolo[1,2-f][1,2,4]triazin-2-yl)ethane-1,2-diol] |
| 91.3% | O=C(O)CCc1cncc(-c2nc(NCc3ccccc3)c3c(-c4ccccc4)ccn3n2)c1 [Example 19, 3-(5-(4-(Benzylamino)-5-phenylpyrrolo[1,2-f][1,2,4]triazin-2-yl)pyridin-3-yl)propanoic acid] |
| 96.6% | OCc1cncc(-c2nc(NCc3ccccc3)c3c(-c4ccccc4)ccn3n2)c1 [Example 20, (5-(4-(Benzylamino)-5-phenylpyrrolo[1,2-f][1,2,4]triazin-2-yl)pyridin-3-yl)methanol] |
| 93.2% | CC(O)c1cncc(-c2nc(NCc3ccccc3)c3c(-c4ccccc4)ccn3n2)c1 (centres unmarked) [Example 21, 1-(5-(4-(Benzylamino)-5-phenylpyrrolo[1,2-f][1,2,4]triazin-2-yl)pyridin-3-yl)ethanol] |
| 95.1% | COC(=O)C1CCCN1C(=O)c1cncc(-c2nc(NCc3ccccc3)c3c(-c4ccccc4)ccn3n2)c1 (centres unmarked) [Example 22, Methyl 1-(5-(4-(benzylamino)-5-phenylpyrrolo[1,2-f][1,2,4]triazin-2-yl)nicotinoyl)pyrrolidine-2-carboxylate] |
| 91.6% | NS(=O)(=O)c1cncc(-c2nc(NCCOc3cnccn3)c3c(-c4ccccc4)ccn3n2)c1 [Example 23, 5-(5-Phenyl-4-((2-(pyrazin-2-yloxy)ethyl)amino)pyrrolo[2,1-f][1,2,4]triazin-2-yl)pyridine-3-sulfonamide] |
| 63.5% | OCC(CO)c1cncc(-c2nc(NCc3ccccc3)c3c(-c4ccccc4)ccn3n2)c1 [Example 24, 2-(5-(4-(Benzylamino)-5-phenylpyrrolo[1,2-f][1,2,4]triazin-2-yl)pyridin-3-yl)propane-1,3-diol] |
| 96.8% | NC(=O)Nc1cncc(-c2nc(NCc3ccccn3)c3c(-c4ccccc4)ccn3n2)c1 [Example 25, 1-(5-(5-Phenyl-4-(pyridin-2-ylmethylamino)pyrrolo[1,2-f][1,2,4]triazin-2-yl)pyridin-3-yl)urea] |
| 94.5% | CC(=O)Nc1ccc(-c2nc(NCc3ccccn3)c3c(-c4ccccc4)ccn3n2)cc1 [Example 26, N-(4-(5-Phenyl-4-(pyridin-2-ylmethylamino)pyrrolo[1,2-f][1,2,4]triazin-2-yl)phenyl)acetamide] |
| 93.2% | CS(=O)(=O)Nc1cccc(NC(=O)c2nc(NCc3ccccc3)c3c(-c4ccccc4)ccn3n2)c1 [Example 27, 4-(Benzylamino)-N-(3-(methylsulfonamido)phenyl)-5-phenylpyrrolo[1,2-f][1,2,4]triazine-2-carboxamide] |
| 97.5% | NC(=O)CNS(=O)(=O)c1cncc(-c2nc(NCc3ccccn3)c3c(-c4ccccc4)ccn3n2)c1 [Example 28, 2-(5-(5-Phenyl-4-(pyridin-2-ylmethylamino)pyrrolo[1,2-f][1,2,4]triazin-2-yl)pyridine-3-sulfonamido)acetamide] |
| 96.3% | NC(=O)CCC(=O)Nc1cncc(-c2nc(NCc3ccccn3)c3c(-c4ccccc4)ccn3n2)c1 [Example 30, N1-(5-(5-Phenyl-4-(pyridin-2-ylmethylamino)pyrrolo[1,2-f][1,2,4]triazin-2-yl)pyridin-3-yl)succinamide] |
| 98.6% | NC(=O)C(=O)Nc1cncc(-c2nc(NCc3ccccn3)c3c(-c4ccccc4)ccn3n2)c1 [Example 31, N1-(5-(5-Phenyl-4-(pyridin-2-ylmethylamino)pyrrolo[1,2-f][1,2,4]triazin-2-yl)pyridin-3-yl)oxalamide] |
